The results in this text go back to patent US8445501B2, “Substituted 7-carboxamido-pyrrolo[3,2-d]pyrimidines” (Takeda GmbH, priority 2008, dated 2013).

In this assay the target is T1, human PDE5 (Homo sapiens, UniProt O76074).
T1 construct: from tissue; host or cells: platelets from fresh blood of human donors (lysate, 10,000 g supernatant)
The experiment in a line: Inhibition of the type 5 phosphodiesterase (PDE5) activity, modified SPA test with platelet lysate. The format is biochemical. The settings on record: PDE5 from human platelet lysate, 0.5 μM cGMP. The gist of the method:
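SPA-based cGMP hydrolysis, [3H]cGMP tracer in 0.5 μM cGMP, by sonicated human platelet lysate; motapizone (1 μM) and a PDE2 inhibitor (10 nM) block other PDEs. Reaction 15 min at 37 °C after 5 min preincubation, quenched with beads containing IBMX. IC50 from concentration-effect curves.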
`Cc1ccc(OCC2CC2)c(-c2ncnc3c(C(=O)N[C@H]4CC[C@H](NC(=O)[C@H](C)O)CC4)c[nH]c23)c1` [Example 244, trans-4-(2-Cyclopropylmethoxy-5-methyl-phenyl)-5H-pyrrolo[3,2-d]pyrimidine-7-carboxylic acid [4-((S)-2-hydroxy-propionylamino)-cyclohexyl]-amide] showed an IC50 of 1.95 nM.
As to `Cc1ccc(OCC2CC2)c(-c2ncnc3c(C(=O)N[C@H]4CC[C@H](NC(=O)C5(O)CC5)CC4)c[nH]c23)c1` [Example 245, trans-4-(2-Cyclopropylmethoxy-5-methyl-phenyl)-5H-pyrrolo[3,2-d]pyrimidine-7-carboxylic acid {4-[(1-hydroxy-cyclopropanecarbonyl)-amino]-cyclohexyl}-amide], inhibition was half-maximal at 1.15 nM (IC50). Against the preceding compound, the IC50 is about 1.7-fold lower.
As to `Cc1ccc(OCC2CC2)c(-c2ncnc3c(C(=O)NC4CCN(C(=O)CO)CC4)c[nH]c23)c1` [Example 246, 4-(2-Cyclopropylmethoxy-5-methyl-phenyl)-5H-pyrrolo[3,2-d]pyrimidine-7-carboxylic acid [1-(2-hydroxy-acetyl)piperidin-4-yl]-amide], the IC50 is 3.63 nM.
In turn, `Cc1ccc(OCC2CC2)c(-c2ncnc3c(C(=O)NC4CCN(C(=O)[C@H](C)O)CC4)c[nH]c23)c1` [Example 247, 4-(2-Cyclopropylmethoxy-5-methyl-phenyl)-5H-pyrrolo[3,2-d]pyrimidine-7-carboxylic acid [1-((S)-2-hydroxy-propionyl)piperidin-4-yl]-amide] had an IC50 of 2.34 nM.
`Cc1ccc(OCC2CC2)c(-c2ncnc3c(C(=O)NC4CCN(C(=O)C5(O)CC5)CC4)c[nH]c23)c1` [Example 248, 4-(2-Cyclopropylmethoxy-5-methyl-phenyl)-5H-pyrrolo[3,2-d]pyrimidine-7-carboxylic acid [1-(1-hydroxy-cyclopropanecarbonyl)-piperidin-4-yl]-amide] showed an IC50 of 1.1 nM.
The result for `CCOc1ccc2c(c1-c1ncnc3c(C(=O)NC4CCN(C(=O)[C@H](C)O)CC4)c[nH]c13)OCO2` [Example 249, 4-(5-Ethoxy-benzo[1,3]dioxol-4-yl)-5H-pyrrolo[3,2-d]pyrimidine-7-carboxylic acid [1-((S)-2-hydroxy-propionyl)-piperidin-4-yl]-amide] reads 2.14 nM.
Then `CCOc1ccc2c(c1-c1ncnc3c(C(=O)N[C@@H]4CCN(C(=O)[C@H](C)O)C4)c[nH]c13)OCO2` [Example 250, 4-(5-Ethoxy-benzo[1,3]dioxol-4-yl)-5H-pyrrolo[3,2-d]pyrimidine-7-carboxylic acid [(R)-1-((S)-2-hydroxy-propionyl)-pyrrolidin-3-yl]amide], with 4.79 nM; and `CCCOc1ccc2c(c1-c1ncnc3c(C(=O)NC4CCN(C(=O)[C@H](C)O)CC4)c[nH]c13)OCO2` [Example 251, 4-(5-Propoxy-benzo[1,3]dioxol-4-yl)-5H-pyrrolo[3,2-d]pyrimidine-7-carboxylic acid [1-((S)-2-hydroxy-propionyl)piperidin-4-yl]-amide], with 0.363 nM; and `CCCOc1ccc2c(c1-c1ncnc3c(C(=O)N[C@@H]4CCN(C(=O)[C@H](C)O)C4)c[nH]c13)OCO2` [Example 252, 4-(5-Propoxy-benzo[1,3]dioxol-4-yl)-5H-pyrrolo[3,2-d]pyrimidine-7-carboxylic acid [(R)-1-((S)-2-hydroxy-propionyl)-pyrrolidin-3-yl]amide], with 1.2 nM.
The result for `CCCCOc1ccc2c(c1-c1ncnc3c(C(=O)NC4CCN(C(=O)[C@H](C)O)CC4)c[nH]c13)OCO2` [Example 253, 4-(5-Butoxy-benzo[1,3]dioxol-4-yl)-5H-pyrrolo[3,2-d]pyrimidine-7-carboxylic acid [1-((S)-2-hydroxy-propionyl)-piperidin-4-yl]-amide] reads 0.17 nM; that for `CCCCOc1ccc2c(c1-c1ncnc3c(C(=O)N[C@@H]4CCN(C(=O)[C@H](C)O)C4)c[nH]c13)OCO2` [Example 254, 4-(5-Butoxy-benzo[1,3]dioxol-4-yl)-5H-pyrrolo[3,2-d]pyrimidine-7-carboxylic acid [(R)-1-((S)-2-hydroxy-propionyl)-pyrrolidin-3-yl]amide], 0.589 nM; that for `COCCOc1cc(OC)ccc1-c1ncnc2c(C(=O)N[C@H]3CC[C@H](NC(=O)CO)CC3)c[nH]c12` [Example 255, trans-4-[4-Methoxy-2-(2-methoxy-ethoxy)-phenyl]-5H-pyrrolo[3,2-d]pyrimidine-7-carboxylic acid [4-(2-hydroxy-acetylamino)-cyclohexyl]-amide], 13.5 nM.
The compound `COCCOc1cc(OC)ccc1-c1ncnc2c(C(=O)N[C@H]3CC[C@H](NC(=O)[C@H](C)O)CC3)c[nH]c12` [Example 256, trans-4-[4-Methoxy-2-(2-methoxy-ethoxy)-phenyl]-5H-pyrrolo[3,2-d]pyrimidine-7-carboxylic acid [4-((S)-2-hydroxy-propionylamino)-cyclohexyl]-amide] had an IC50 of 12 nM.
On to `COCCOc1cc(OC)ccc1-c1ncnc2c(C(=O)N[C@H]3CC[C@H](NC(=O)C4(O)CC4)CC3)c[nH]c12` [Example 257, trans-4-[4-Methoxy-2-(2-methoxy-ethoxy)-phenyl]-5H-pyrrolo[3,2-d]pyrimidine-7-carboxylic acid {-[(1-hydroxy-cyclopropanecarbonyl)-amino]-cyclohexyl}-amide], for which the IC50 was 9.33 nM. The IC50 values of the last two compounds are within 1.5-fold of each other.
Then `COCCOc1cc(OC)ccc1-c1ncnc2c(C(=O)N[C@H]3CC[C@@H](NC(=O)C4(O)CC4)CC3)c[nH]c12` [Example 258, cis-4-[4-Methoxy-2-(2-methoxy-ethoxy)-phenyl]-5H-pyrrolo[3,2-d]pyrimidine-7-carboxylic acid {-[(1-hydroxy-cyclopropanecarbonyl)-amino]-cyclohexyl}-amide], with 6.31 nM; and `COCCOc1cc(OC)ccc1-c1ncnc2c(C(=O)NC3CCN(C(=O)C4(O)CC4)CC3)c[nH]c12` [Example 259, 4-[4-Methoxy-2-(2-methoxy-ethoxy)-phenyl]-5H-pyrrolo[3,2-d]pyrimidine-7-carboxylic acid [1-(1-hydroxy-cyclopropanecarbonyl)-piperidin-4-yl]-amide], with 8.51 nM.
Then `COCCOc1ccc2c(c1-c1ncnc3c(C(=O)N[C@H]4CC[C@H](NC(=O)CO)CC4)c[nH]c13)OCO2` [Example 260, trans-4-[5-(2-Methoxy-ethoxy)-benzo[1,3]dioxol-4-yl]-5H-pyrrolo[3,2-d]pyrimidine-7-carboxylic acid [4-(2-hydroxy-acetylamino)-cyclohexyl]-amide], with 4.79 nM; and `COCCOc1ccc2c(c1-c1ncnc3c(C(=O)N[C@H]4CC[C@@H](NC(=O)CO)CC4)c[nH]c13)OCO2` [Example 261, cis-4-[5-(2-Methoxy-ethoxy)-benzo[1,3]dioxol-4-yl]-5H-pyrrolo[3,2-d]pyrimidine-7-carboxylic acid [4-(2-hydroxy-acetylamino)-cyclohexyl]-amide], with 11 nM.
On to `COCCOc1ccc2c(c1-c1ncnc3c(C(=O)N[C@H]4CC[C@@H](NC(=O)[C@H](C)O)CC4)c[nH]c13)OCO2` [Example 262, cis-4-[5-(2-Methoxy-ethoxy)-benzo[1,3]dioxol-4-yl]-5H-pyrrolo[3,2-d]pyrimidine-7-carboxylic acid [4-((S)-2-hydroxy-propionylamino)-cyclohexyl]-amide], for which the IC50 was 9.33 nM.
The result for `COCCOc1ccc2c(c1-c1ncnc3c(C(=O)NC4CCN(C(=O)[C@H](C)O)CC4)c[nH]c13)OCO2` [Example 263, 4-[5-(2-Methoxy-ethoxy)-benzo[1,3]dioxol-4-yl]-5H-pyrrolo[3,2-d]pyrimidine-7-carboxylic acid [1-((S)-2-hydroxy-propionyl)piperidin-4-yl]-amide] reads 10 nM.
Then `CC(=O)c1ccc(OCC2CC2)c(-c2ncnc3c(C(=O)NC4CCN(C(=O)[C@H](C)O)CC4)c[nH]c23)c1` [Example 264, 4-(5-Acetyl-2-cyclopropylmethoxy-phenyl)-5H-pyrrolo[3,2-d]pyrimidine-7-carboxylic acid [1-((S)-2-hydroxy-propanoyl)piperidin-4-yl]-amide], with 0.219 nM; and `COCC(=O)N1CCC(NC(=O)c2c[nH]c3c(-c4cc(C(C)=O)ccc4OCC4CC4)ncnc23)CC1` [Example 265, 4-(5-Acetyl-2-cyclopropylmethoxy-phenyl)-5H-pyrrolo[3,2-d]pyrimidine-7-carboxylic acid [1-(2-methoxy-acetyl)piperidin-4-yl]-amide], with 0.288 nM.
In the case of `CC(=O)c1ccc(OCC2CC2)c(-c2ncnc3c(C(=O)NC4CCN(C(C)=O)CC4)c[nH]c23)c1` [Example 266, 4-(5-Acetyl-2-cyclopropylmethoxy-phenyl)-5H-pyrrolo[3,2-d]pyrimidine-7-carboxylic acid (1-acetyl-piperidin-4-yl)-amide], 0.0794 nM corresponded to half-maximal inhibition (IC50).
In turn, `CC(=O)c1cc(-c2ncnc3c(C(=O)NC4CCN(C(=O)[C@H](C)O)CC4)c[nH]c23)c(OCC2CC2)cc1C` [Example 267, 4-(5-Acetyl-2-cyclopropylmethoxy-4-methyl-phenyl)-5H-pyrrolo[3,2-d]pyrimidine-7-carboxylic acid [1-((S)-2-hydroxy-propionyl)piperidin-4-yl]-amide] showed an IC50 of 0.324 nM.
Then `CC(=O)c1cc(-c2ncnc3c(C(=O)NC4CCN(C(C)=O)CC4)c[nH]c23)c(OCC2CC2)cc1C` [Example 268, 4-(5-Acetyl-2-cyclopropylmethoxy-4-methyl-phenyl)-5H-pyrrolo[3,2-d]pyrimidine-7-carboxylic acid (1-acetyl-piperidin-4-yl)-amide], with 0.794 nM; and `COCCNC(=O)[C@H]1CC[C@H](NC(=O)c2c[nH]c3c(-c4c(OCC5CC5)ccc5c4OCO5)ncnc23)CC1` [Example 269, trans-4-(5-Cyclopropylmethoxy-benzo[1,3]dioxol-4-yl)-5H-pyrrolo[3,2-d]pyrimidine-7-carboxylic acid [4-(2-methoxy-ethylcarbamoyl)-cyclohexyl]-amide], with 0.575 nM.
